# Assay results reported in patent publication US20240423971A1, “APPLICATION OF RIP2 INHIBITOR COMBINED WITH CHEMOTHERAPY DRUG” (NINGBO COMBIREG PHARMACEUTICAL TECHNOLOGY CO., LTD., priority 2021, published 2024).
# Tests used:
# Assay type in all cases: in vivo, C57BL/6 mice
# melanoma (B16F10) [1] = experiment: Melanoma (B16F10) tumor-bearing model, GSK583 combined with DTX; settings: for tumor growth compared to the vehicle control group: B16-F10 s.c. in C57BL/6 mice, GSK583 1 mg/kg i.v. every 4 days x4, DTX 5 mg/kg i.v. every 7 days x3, to DAY 16
# Protocol: Both of the test substances DTX and GSK583 were prepared as a 20×DMSO stock solution, which was diluted with normal saline containing 5% polyoxyethylene castor oil (Cremophor EL) to the administration concentration before use.
# Experimental animals and tumor strains: SPF grade male wild-type C57BL/6 mice, 6 to 8 weeks old, purchased from Beijing Vital River Laboratory Animal Technology Co., Ltd. Cells used in the experiment: murine melanoma cells (B16-F10), purchased from ATCC.
# Mice were randomly divided into 4 groups with 8 mice in each group based on body weight according to the method shown in (A and B of FIG. 4), namely: (i) vehicle control group; (ii) GSK583 (1 mg/kg) group; (iii) Docetaxel (DTX; 5 mg/kg) group; (iv) GSK583 (1 mg/kg)+DTX (5 mg/kg) group. DTX was administered intravenously once every 7 days for a total of 3 doses; GSK583 and vehicle control were administered intravenously once every 4 days for a total of 4 doses. The mice were subcutaneously inoculated with B16-F10 cells with a concentration of 2× 10^6 cells/mL and 0.1 mL/mouse, and the day of inoculation was recorded as DAY 0. The administration was started on DAY 1. During the administration, the animals were weighed every 2 days. The long diameter and short diameter of the tumor were measured with a vernier caliper. The tumor size was calculated by the formula: (½)×long diameter×(short diameter) 2. The mice were euthanized on DAY 16, and after dissection, the tumor was weighed and the tumor inhibition rate was calculated.
# melanoma (B16F10) [2] = experiment: Melanoma (B16F10) tumor-bearing model, GSK583 combined with GEM; settings: GSK583 1 mg/kg; for tumor growth compared to the vehicle control group: B16-F10 s.c. in C57BL/6 mice, GEM 60 mg/kg i.v. once every 4 days, 4 doses, to DAY 15
# Protocol: The test substance GEM was prepared in normal saline, and GSK583 was prepared as a 20×DMSO stock solution, which was diluted with normal saline containing 5% polyoxyethylene castor oil (Cremophor EL) to the administration concentration before use. Experimental animals and tumor strains: SPF grade male wild-type C57BL/6 mice, 6 to 8 weeks old, purchased from Beijing Vital River Laboratory Animal Technology Co., Ltd. Cells used in the experiment: murine melanoma cells (B16-F10), purchased from ATCC. Mice were randomly divided into 4 groups with 8 mice in each group based on body weight according to the method shown in (A and B of FIG. 6), namely: (i) vehicle control group; (ii) GSK583 (1 mg/kg) group; (iii) GEM (60 mg/kg) group; (iv) GSK583 (1 mg/kg)+GEM (60 mg/kg) group. GEM, GSK583, and vehicle control were administered intravenously once every 4 days for a total of 4 doses. The mice were subcutaneously inoculated with B16-F10 cells with a concentration of 2× 10^6 cells/mL and 0.1 mL/mouse, and the day of inoculation was recorded as DAY 0. The administration was started on DAY 1. During the administration, the animals were weighed every 2 days. The long diameter and short diameter of the tumor were measured with a vernier caliper. The tumor size was calculated by the formula: (½)× long diameter×(short diameter) 2. The experiment was terminated on DAY 15. After the mice were euthanized and dissected, the tumor was weighed and photographed, and the tumor inhibition rate was calculated.
# colorectal cancer (MC38) [3] = experiment: Colorectal cancer (MC38) tumor-bearing model, GSK583 combined with GEM; settings: GSK583 1 mg/kg; for tumor growth compared to the vehicle control group: MC38 s.c. in C57BL/6 mice, tumors 50 to 100 mm^3 at start, GEM 40 mg/kg i.v. once every 4 days, 4 doses, to DAY 14
# Protocol: The test substance GEM was prepared in normal saline, and GSK583 was prepared as a 20×DMSO stock solution, which was diluted with normal saline containing 5% polyoxyethylene castor oil (Cremophor EL) to the administration concentration before use. Experimental animals and tumor strains: SPF grade male wild-type C57BL/6 mice, 6 to 8 weeks old, purchased from Beijing Vital River Laboratory Animal Technology Co., Ltd. Cells used in the experiment: murine colorectal cancer cells (MC38), purchased from Union Cell Bank (China). According to the method shown in (A and B of FIG. 8), the mice were subcutaneously inoculated with MC38 cells with a concentration of 2×10^6 cells/mL and 0.1 mL/mouse. When the tumor grew to a volume within the range of 50 to 100 mm^3, the mice were randomly divided into 4 groups with 8 mice in each group based on tumor volume, and the administration was started with the following regimen: (i) vehicle control group; (ii) GSK583 (1 mg/kg) group; (iii) GEM (40 mg/kg) group; (iv) GSK583 (1 mg/kg)+GEM (40 mg/kg) group. GEM, GSK583, and vehicle were administered intravenously once every 4 days for a total of 4 doses. The day of grouping and administration was recorded as DAY 0. During the administration, the animals were weighed every 3 days. The long diameter and short diameter of the tumor were measured with a vernier caliper. The tumor size was calculated by the formula: (½)× long diameter× (short diameter) 2. The experiment was terminated on DAY 14. After the mice were euthanized and dissected, the tumor was weighed and photographed, and the tumor inhibition rate was calculated.
# melanoma (B16F10) [4] = experiment: Melanoma (B16F10) tumor-bearing model, GSK583 combined with PTX; settings: B16-F10 s.c. in C57BL/6 mice; GSK583 1 mg/kg, PTX 10 mg/kg i.v. once every 4 days, 4 doses; to DAY 15
# Protocol: Both of the test substances PTX (Sigma) and GSK583 (MCE) were prepared as a 20× DMSO stock solution, which was diluted with normal saline containing 5% (v/v) polyoxyethylene castor oil (Cremophor EL) to the administration concentration before use. Experimental animals and tumor strains: SPF grade male wild-type C57BL/6 mice, 6 to 8 weeks old, purchased from Beijing Vital River Laboratory Animal Technology Co., Ltd. Cells used in the experiment: murine melanoma cell line (B16-F10), purchased from ATCC. Mice were randomly divided into 4 groups with 8 mice in each group based on body weight according to the method shown in (A of FIG. 1 and B of FIG. 1), namely: (i) vehicle control group; (ii) GSK583 (1 mg/kg) group; (iii) PTX (10 mg/kg) group; (iv) GSK583 (1 mg/kg)+PTX (10 mg/kg) group. PTX, GSK583, and vehicle were administered intravenously once every 4 days for a total of 4 doses. The mice were subcutaneously inoculated with B16-F10 cells with a concentration of 2× 10^6 cells/mL and 0.1 mL/mouse, and the day of inoculation was recorded as DAY 0. The administration was started on DAY 1. During the administration, the animals were weighed every 2 days. The long diameter and short diameter of the tumor were measured with a vernier caliper. The tumor size was calculated by the formula: (½)×long diameter×(short diameter) 2. The experiment was terminated on DAY 15. After the mice were euthanized and dissected, the tumor was weighed and the tumor inhibition rate was calculated.
# colorectal cancer (MC38) [5] = experiment: Colorectal cancer (MC38) tumor-bearing model, GSK583 combined with OXA; settings: GSK583 1 mg/kg; for tumor growth compared to the vehicle control group: MC38 s.c. in C57BL/6 mice, tumors 100 mm^3 at start, OXA 6 mg/kg i.v. once every 4 days, 4 doses, to DAY 14
# Protocol: According to the method shown in (A and B of FIG. 10), the mice were subcutaneously inoculated with MC38 cells with a concentration of 5×10^6 cells/mL and 0.1 mL/mouse. […] OXA, GSK583, and vehicle were administered intravenously once every 4 days for a total of 4 doses. The day of grouping and administration was recorded as DAY 0. During the administration, the animals were weighed every 3 days. The long diameter and short diameter of the tumor were measured with a vernier caliper. The tumor size was calculated by the formula: (½)×long diameter×(short diameter) 2. The experiment was terminated on DAY 14. After the mice were euthanized and dissected, the tumor was weighed and photographed, and the tumor inhibition rate was calculated.
SMILES,tumor growth compared to the vehicle control group (melanoma (B16F10) [1]),tumor growth compared to the vehicle control group (melanoma (B16F10) [2]),tumor growth compared to the vehicle control group (colorectal cancer (MC38) [3]),tumor growth compared to the vehicle control group (colorectal cancer (MC38) [5]),further results
"CC(=O)O[C@@]12CO[C@@H]1C[C@H](O)[C@@]1(C)C(=O)[C@H](O)C3=C(C)[C@@H](OC(=O)[C@H](O)[C@@H](NC(=O)OC(C)(C)C)c4ccccc4)C[C@@](O)([C@@H](OC(=O)c4ccccc4)[C@H]21)C3(C)C [DTX, Docetaxel]",significantly inhibited tumor growth,–,–,–,"tumor weight at the end of the administration (melanoma (B16F10) [1]; B16-F10 in C57BL/6 mice, GSK583 1 mg/kg, DTX 5 mg/kg i.v., DAY 16, vs control group): significantly and statistically lower than that of the control group; growth rate of tumor volume (melanoma (B16F10) [1]; B16-F10 in C57BL/6 mice, GSK583 1 mg/kg, DTX 5 mg/kg i.v., vs control group): slower than that of the control group"
"Nc1ccn([C@@H]2O[C@H](CO)[C@@H](O)C2(F)F)c(=O)n1 [GEM, Gemcitabine]",–,significantly inhibited tumor growth,no significant inhibitory effect,–,"tumor weight at the end of the administration (melanoma (B16F10) [2]; B16-F10 in C57BL/6 mice, GEM 60 mg/kg i.v. every 4 days x4, DAY 15, vs control group): significantly and statistically lower than that of the control group; growth rate of tumor volume (melanoma (B16F10) [2]; B16-F10 in C57BL/6 mice, GEM 60 mg/kg i.v. every 4 days x4, vs control group): slower than that of the control group; growth rate of tumor volume (colorectal cancer (MC38) [3]; MC38 in C57BL/6 mice, GEM 40 mg/kg i.v. every 4 days x4): no significant inhibitory effect"
CC(C)(C)S(=O)(=O)c1ccc2nccc(Nc3n[nH]c4ccc(F)cc34)c2c1 [GSK583],no significant inhibitory effect on tumor growth,no significant inhibitory effect on tumor growth,no significant inhibitory effect on tumor growth,no significant inhibitory effect on tumor growth,tumor growth compared to the vehicle control group (melanoma (B16F10) [4]): no significant inhibitory effect on tumor growth
"O=C1[O][Pt]2([NH][C@@H]3CCCC[C@H]3[NH]2)[O]C1=O [OXA, Oxaliplatin]",–,–,–,no significant inhibitory effect,"growth rate of tumor volume (colorectal cancer (MC38) [5]; MC38 in C57BL/6 mice, OXA 6 mg/kg i.v. every 4 days x4): no significant inhibitory effect"
